Results on seven compounds are retold here after DBAASP.

≈ marks a conversion by molar mass, not a printed value. Where “and” joins values, the source holds several entries; their conditions need not be identical. Identical values can stand only once.

Common to all, as to assay: ≥ marks a high value that may be exact or a test limit, other limits are often not marked, values filed in µg/mL are converted to µM
Test [1] has as its system Escherichia coli 078.
For test [2], the system named is Staphylococcus aureus ATCC 25923.
The test system of test [3] is Staphylococcus epidermidis ATCC 12228.
Test [4] relates to Streptococcus agalactiae CICC 10465.
Test [5] relates to Salmonella enterica subsp. enterica serovar Typhimurium ATCC 14028.
Test [6] has as its system Escherichia coli UB1005.
The subject of test [7] is Pseudomonas aeruginosa ATCC 27853.
For test [8], the system named is Escherichia coli ATCC 25922.
The test system of test [9] is Salmonella enterica subsp. enterica serovar Pullorum ATCC 7913.
Test [10] concerns Staphylococcus aureus ATCC 29213.
For test [11], the system named is Salmonella enterica subsp. enterica serovar Typhimurium C77-31.
Test [12] concerns Streptococcus thermophilus YM-C.
The test system of test [13] is Lacticaseibacillus rhamnosus 7469.
The test system of test [14] is Streptococcus agalactiae.
Test [15] deals with Pseudomonas aeruginosa ATCC 9027.
Test [16] concerns Escherichia coli AB94012.
In test [17] the test system is Staphylococcus aureus AB6538.
Test [18] relates to Bacillus subtilis CMCC 63501.
In test [19] the test system is Listeria monocytogenes ATCC 19115.
For test [20], the system named is Escherichia coli CICC 10670.
In test [21] the test system is Staphylococcus aureus ATCC 6538.
Test [22] has as its system Cryptococcus neoformans ATCC 208821.
The test system of test [23] is Candida albicans ATCC 90028.
Test [24] has as its system Klebsiella pneumoniae ATCC 700603.
The subject of test [25] is Staphylococcus aureus SH1000.
The test system of test [26] is Acinetobacter baumannii ATCC 19606.
Test [27] has as its system Staphylococcus aureus ATCC 43300.
Test [28] relates to Staphylococcus aureus ATCC 35556.
The subject of test [29] is Pseudomonas aeruginosa ATCC 47085.
For test [30], the system named is Escherichia coli D31 CGSC 5165.
The subject of test [31] is Candida albicans 08030401.
In test [32] the test system is Candida albicans ATCC 2002.
Test [33] deals with Candida albicans 08032815.
The subject of test [34] is Candida albicans ATCC 10231.
The subject of test [35] is Bacillus subtilis ATCC 6633.
For test [36], the system named is Staphylococcus aureus BNCC 186335.
The subject of test [37] is Escherichia coli.
Test [38] concerns Staphylococcus aureus.
Test [39] deals with Staphylococcus aureus ATCC 2592.
Test [40] concerns Bacillus subtilis.
Test [41] relates to Listeria monocytogenes.
In test [42] the test system is Pseudomonas aeruginosa BNCC 125486.
For test [43], the system named is Escherichia coli BNCC 133264.
Test [44] relates to Candida albicans SC5314.

Regarding `CC[C@H](C)[C@H](NC(=O)[C@H](CC(C)C)NC(=O)[C@@H](NC(=O)[C@@H](N)CC(=O)O)[C@@H](C)CC)C(=O)N[C@H](C(=O)N[C@H](C(=O)NCC(=O)NCC(=O)N[C@@H](CCCCN)C(=O)N[C@@H](CCC(=O)O)C(=O)N[C@@H](CCCN=C(N)N)C(=O)N[C@@H](CCCCN)C(=O)N[C@@H](CCCCN)C(=O)N[C@@H](CCCN=C(N)N)C(=O)N[C@@H](CCCN=C(N)N)C(=O)N[C@@H](CCCN=C(N)N)C(N)=O)C(C)C)[C@@H](C)CC` [DILIIVGGKERKKRRR], the MIC in [1] was ≥ 64 µM; in [2], > 64 µM; in test [3], > 64 µM; in test [4] it was 4 µM (≈ 7.75 µg/mL); in test [5] it was > 64 µM; in [6], ≥ 64 µM. Moreover, the MIC in test [7] was > 64 µM; in [8], > 64 µM; in test [9], ≥ 64 µM; in test [10], > 64 µM; in test [11] it was ≥ 64 µM; in test [12], ≥ 64 µM. In addition, the MIC in test [13] was ≥ 64 µM; in [14] it was 4 µM (≈ 7.75 µg/mL).

`CC[C@H](C)[C@H](NC(=O)[C@H](CCCCN)NC(=O)[C@@H]1CCCN1C(=O)[C@H](CC(C)C)NC(=O)[C@@H](NC(=O)[C@H](CCCCN)NC(=O)CNC(=O)[C@H](CC(C)C)NC(=O)[C@@H](NC(=O)[C@H](CCCCN)NC(=O)CNC(=O)[C@H](CC(C)C)NC(=O)[C@H](CC(C)C)NC(=O)CNC(=O)[C@H](CC(C)C)NC(=O)[C@@H](N)Cc1ccccc1)C(C)C)C(C)C)C(=O)N[C@@H](Cc1ccccc1)C(=O)N[C@@H](CCCCN)C(N)=O` [FLGLLGKVLGKVLPKIFK]: the MIC in [15] is 12.7 µM and 25.4 µM; in test [16], 6.34 µM (≈ 12.5 µg/mL); in [7], 12.7 µM (≈ 25 µg/mL); in test [8] it was 12.7 µM (≈ 25 µg/mL); in [17] it was 3.17 µM (≈ 6.25 µg/mL).

As to `CC[C@H](C)[C@H](NC(=O)CN)C(=O)N[C@H](C(=O)N[C@@H](CC(=O)O)C(=O)N[C@@H](CC(C)C)C(=O)N[C@@H](CCCN=C(N)N)C(=O)NCC(=O)N[C@@H](CCSC)C(=O)N[C@@H](CC(C)C)C(=O)N[C@@H](CCCCN)C(=O)N[C@@H](CCCN=C(N)N)C(=O)N[C@@H](CC(C)C)C(=O)N[C@@H](CCCCN)C(=O)N[C@@H](CCCCN)C(=O)N[C@@H](CCSC)C(=O)N[C@@H](CCCCN)C(=O)O)[C@@H](C)O` [GITDLRGMLKRLKKMK], the MIC is 5 µM (≈ 9.44 µg/mL) in [18]; 2.5 µM (≈ 4.72 µg/mL) in [19]; 5 µM (≈ 9.44 µg/mL) in test [5]; 2.5 µM (≈ 4.72 µg/mL) in test [20]; 2.5 µM (≈ 4.72 µg/mL) in test [21].

For the compound `CC[C@H](C)[C@H](NC(=O)[C@H](CC(=O)O)NC(=O)[C@H](Cc1ccccc1)NC(=O)[C@H](CC(C)C)NC(=O)CN)C(=O)N[C@H](C(=O)N[C@@H](CCCCN)C(=O)N[C@@H](CCCCN)C(=O)N[C@H](C(=O)N[C@H](C(=O)N[C@@H](CCCCN)C(=O)N[C@@H](CC(C)C)C(=O)N[C@@H](CC(C)C)C(=O)N[C@@H](CCCCN)C(N)=O)C(C)C)C(C)C)C(C)C` [GLFDIVKKVVKLLK], the MIC is 20 µM (≈ 32 µg/mL) in test [22]; 20 µM (≈ 32 µg/mL) in [23]; > 20 µM in test [24]; ≥ 50 µM in test [25]; > 20 µM in test [26]; > 20 µM in test [7]. Further, the MIC in test [8] and in test [27] was > 20 µM in each case.

Turning to `CC[C@H](C)[C@H](NC(=O)[C@H](CCCCN)NC(=O)CNC(=O)[C@H](CC(C)C)NC(=O)[C@@H](NC(=O)[C@H](C)NC(=O)[C@H](CCCCN)NC(=O)CNC(=O)[C@H](C)NC(=O)CNC(=O)[C@H](CCCCN)NC(=O)[C@H](CCSC)NC(=O)[C@H](CCCCN)NC(=O)[C@@H](NC(=O)[C@H](Cc1c[nH]c2ccccc12)NC(=O)[C@H](CC(C)C)NC(=O)[C@H](CCC(=O)O)NC(=O)[C@H](CCCCN)NC(=O)[C@H](CC(C)C)NC(=O)[C@@H](N)CC(C)C)[C@@H](C)O)C(C)C)C(=O)N[C@@H](CCCCN)C(=O)NCC(=O)N[C@@H](CC(C)C)C(=O)N[C@@H](CC(C)C)C(=O)O` [LLKELWTKMKGAGKAVLGKIKGLL], the MIC in test [28] was determined as 15 µM (≈ 38.9 µg/mL); in [26] it was 1 µM (≈ 2.6 µg/mL); in test [29] it was 15 µM (≈ 38.9 µg/mL); in test [30], 0.94 µM (≈ 2.44 µg/mL).

Turning to `NCCCC[C@H](NC(=O)[C@H](CCCCN)NC(=O)[C@H](Cc1c[nH]c2ccccc12)NC(=O)[C@H](Cc1c[nH]c2ccccc12)NC(=O)[C@H](CCCCN)NC(=O)[C@H](Cc1ccccc1)NC(=O)[C@H](CCCN=C(N)N)NC(=O)[C@H](Cc1c[nH]c2ccccc12)NC(=O)[C@@H](N)CCCN=C(N)N)C(=O)O` [RWRFKWWKK], the minimal inhibitory concentration (MIC) in test [2] amounted to 26.4 µM (≈ 37.5 µg/mL); in [31], 13 µM (≈ 18.5 µg/mL); in test [32], 13 µM (≈ 18.5 µg/mL); in test [33], 13 µM (≈ 18.5 µg/mL); in [8], 26.4 µM (≈ 37.5 µg/mL); in test [34], 13 µM (≈ 18.5 µg/mL). This compound registered an MIC in test [35] of 26.4 µM (≈ 37.5 µg/mL).

As for `CC(C)[C@H](N)C(=O)N[C@@H](CCCCN)C(=O)N[C@@H](CCCN=C(N)N)C(=O)N[C@@H](Cc1ccccc1)C(=O)N[C@@H](CCCCN)C(=O)N[C@@H](CCCCN)C(=O)N[C@@H](Cc1ccccc1)C(=O)N[C@@H](Cc1ccccc1)C(=O)N[C@@H](CCCN=C(N)N)C(=O)N[C@@H](CCCCN)C(=O)N[C@@H](Cc1ccccc1)C(=O)N[C@@H](CCCCN)C(=O)N[C@@H](CCCCN)C(=O)N[C@@H](Cc1ccccc1)C(=O)N[C@H](C(N)=O)C(C)C` [VKRFKKFFRKFKKFV], the MIC was found to be 1.97 µM (≈ 4 µg/mL) in test [36]; 4.6 µM (≈ 9.35 µg/mL) in [8]; 7.87 µM (≈ 16 µg/mL) in [37]; 3.93 µM (≈ 8 µg/mL) in test [38]; 9.2 µM (≈ 18.7 µg/mL) in [39]; 9.2 µM (≈ 18.7 µg/mL) in test [40]. Further, the MIC in [41] was 7.87 µM (≈ 16 µg/mL); in test [42] it was 3.93 µM (≈ 8 µg/mL); in test [43] it was 0.984 µM (≈ 2 µg/mL); in [44] it was 4.6 µM (≈ 9.35 µg/mL).
